Experimental findings from patent US20170129903A1, “COMPOUNDS COMPRISING 1,1a,2,5a-TETRAHYDROSPIRO[INDOLE-3,2a-PYRROLE]-2,5a-DIONE SYSTEM AS INHIBITORS P53-MDM2 PROTEIN-PROTEIN INTERACTION” (ADAMED SP. Z O.O., priority 2014, published 2017) are described below.

Data set [1] has as its target T1, p53-Mdm2 interaction (N-terminal domain of Mdm2 protein, amino acids 1-111) (Homo sapiens, UniProt Q00987).
T1 construct: N-terminal domain of Mdm2 protein (amino acids 1-111)
Description: Fluorescence polarization (FP) binding assay of p53-Mdm2 interaction. As to conditions: for Ki: FP assay, 130 nM Mdm2, FAM-labelled p53 peptide, Ki transformed from IC50 using Kenakin equation. The method in brief:
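N-terminal Mdm2 (aa 1-111) at 130 nM preincubated 15 min with compound (5% DMSO) in PBS, 0.1% CHAPS, 5 mM DTT, then […] FAM-labelled p53 peptide added. Polarization read after 90 min at room temperature (ex 470/em 520 nm). IC50 converted to Ki by Kenakin equation.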

A further data set has as its system SJSA-1 xenograft. Description: In vivo efficacy in the SJSA-1 xenograft model in mice. To be noted: compound 93 100 mg/kg p.o. q1dx14 vs control NaCl 0.9%, female Crl:SHO-Prkdc scid Hr hr mice, during and at the end of study. Here is the method: The experiment was conducted on female mice from the Crl:SHO-Prkdc^scidHr^hr strain. Mice were inoculated subcutaneously in the right flank with cancer cell line SJSA-1 in the amount of […] cells suspended in 100 μl HBSS: Matrigel matrix in a 3:1 ratio per mouse. On the 16th day after inoculation mice were divided into groups, so that in each group the mean tumor volume was similar and averaged around 160 mm^3. Two experiment groups were selected, each consisting of 5 mice: Control NaCl 0.9% and compound 93. The compound 93 was dissolved in 15% PEG400, 10% Cremophore EL, 75% H2O.
Mice used in the experiment were administered per os (p.o.) with compounds or NaCl 0.9% in a q1dx14 schedule (14 doses, daily). During the course of experiment mice were weighed before each administration,—twice/thrice a week. Animal welfare was monitored daily.
Change in tumor volume was monitored twice/thrice a week starting from the first day of administration. Tumor volume was calculated based on its length and width measured with an electronic calipers:
V[mm^3]=d^2×D/2 • where d—width, D—length.
The tumor volume in the compound 93 group was measured up to 68 days after inoculation (39 days after last administration). Results of the experiment were expressed as mean values of tumor volume ±SEM. All calculations and graphs were performed using GraphPad Prism 5 software. […]

Data set [2] relates to SJSA-1 osteosarcoma cell line. Description: MTT cell viability assay. It is filed as cell-based. To be noted: Homo sapiens, SJSA-1, 72 h, 72 h incubation, average of 2-5 experiments. The method in brief:
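Cells exposed to serial compound dilutions for 72 h, then MTT (0.5 mg/ml final) added for 4 h; formazan dissolved in DMSO. IC50 from dose-response curves, 2-5 independent repeats.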

T1 sequence (Q00987 1-111): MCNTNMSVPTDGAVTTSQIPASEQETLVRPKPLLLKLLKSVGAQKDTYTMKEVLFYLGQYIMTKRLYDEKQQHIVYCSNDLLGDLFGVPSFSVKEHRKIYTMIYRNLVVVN

For `COc1ccc(-n2cc3c(c2C(C)C)C2(C(=O)Nc4cc(Cl)ccc42)N(c2cc(Cl)ccc2C)C3=O)c(OC)c1` (centres unmarked) [Compound 93, 6-chloro-2′-(5-chloro-2-methylphenyl)-5′-(2,4-dimethoxyphenyl)-6′-(propan-2-yl)-1,2,3′,5′-tetrahydro-2′H-spiro[indole-3,1′-pyrrolo[3,4-c]pyrrole]-2,3′-dione], the affinity in data set [1], expressed as Ki, was 3.8 nM. Further, the “difference in body weight or welfare between experiment groups” value with SJSA-1 xenograft was “No significant difference”. In addition, the half-maximal inhibitory concentration (IC50) (commonly the point on the concentration scale where inhibition reaches its midpoint) in data set [2] amounted to 0.42 µM.
On to `CO[C@H]1CNCC[C@H]1n1cc2c(c1C(C)C)[C@@]1(C(=O)Nc3cc(Cl)ccc31)N(c1cc(Cl)ccc1C)C2=O` [Compound 103, (3S)-6-chloro-2′-(5-chloro-2-methyl-phenyl)-5′-[(3S,4R)-3-methoxy-piperidin-4-yl]-6′-(propan-2-yl)-1,2,3′,5′-tetrahydro-2′H-spiro[indole-3,1′-pyrrolo [3,4-c]pyrrole]-2,3′-dione], for which the Ki (usually the dissociation constant of the complex between target and ligand, obtained from inhibition or displacement) in data set [1] was 4.5 nM. Moreover, half-maximal inhibition in data set [2] (IC50) was put at 2.2 µM.
The corresponding values for `COc1ccc(-n2cc3c(c2C(C)C)[C@@]2(C(=O)Nc4cc(Cl)ccc42)N(c2cc(Cl)cnc2C)C3=O)c(OC)c1` [Compound 111, (3S)-6-chloro-2′-(5-chloro-2-methyl-pyridin-3-yl)-5′-(2,4-dimethoxyphenyl)-6′-(propan-2-yl)-1,2,3′,5′-tetrahydro-2′H-spiro[indole-3,1′-pyrrolo[3,4-c]pyrrole]-2,3′-dione] are 2.8 nM and 0.12 µM.
Consider `COc1ccccc1-n1cc2c(c1C(C)C)C1(C(=O)Nc3cc(Cl)ccc31)N(c1cc(Cl)ccc1C(N)=O)C2=O` (centres unmarked) [Compound 99, 4-chloro-2-[6-chloro-5′-(2-methoxy-phenyl)-2,3′-dioxo-6′-(propan-2-yl)-1,2,3′,5′-tetrahydro-2′H-spiro[indole-3,1′-pyrrolo[3,4-c]pyrrole]-2′-yl]benzamide], for which the inhibition constant (Ki) in data set [1] was 6.7 nM. Moreover, the IC50 in data set [2] amounted to 0.65 µM.
For `COc1ccc(N)cc1-n1cc2c(c1C(C)C)[C@@]1(C(=O)Nc3cc(Cl)ccc31)N(c1cc(Cl)ccc1C)C2=O` [Compound 109, (3S)-5′-(5-amino-2-methoxyphenyl)-6-chloro-2′-(5-chloro-2-methylphenyl)-6′-(propan-2-yl)-1,2,3′,5′-tetrahydro-2′H-spiro[indole-3,1′-pyrrolo[3,4-c]pyrrole]-2,3′-dione], in that order: 1.3 nM and 0.07 µM.
For `CC1(c2c3c(nn2CC2CCCN2)C(=O)N(c2cccc(Cl)c2)C32C(=O)Nc3cc(Cl)ccc32)CC1` (centres unmarked) [Compound 28, 6-chloro-5′-(3-chlorophenyl)-3′-(1-methylcyclopropyl)-2′-(pyrrolidin-2-ylmethyl)-1,2,5′,6′-tetrahydro-2′H-spiro [indole-3,4′-pyrrolo[3,4-c]pyrazole]-2,6′-dione], in that order: 1460 nM and 32 µM.
`COc1ccccc1-n1nc2c(c1C(C)C)C1(C(=O)Nc3cc(Cl)ccc31)N(c1cc(Cl)ccc1OCCS(C)(=O)=O)C2=O` (centres unmarked) [Compound 73, 6-chloro-5′-[5-chloro-2-(2-methanesulfonylethoxy)phenyl]-2′-(2-methoxyphenyl)-3′-(propan-2-yl)-1,2,5′,6′-tetrahydro-2′H-spiro[indole-3,4′-pyrrolo [3,4-c]pyrazole]-2,6′-dione]: the affinity in data set [1], expressed as Ki, was 42 nM. For the same compound, it took 11.4 µM to reach half-maximal inhibition in data set [2] (IC50).
In turn, `COc1ccccc1-n1nc2c(c1C(C)C)[C@@]1(C(=O)Nc3cc(Cl)ccc31)N(c1cc(Cl)cnc1C)C2=O` [Compound 80, (3S)-6-chloro-5′-(5-chloro-2-methyl-pyridin-3-yl)-2′-(2-methoxyphenyl)-3′-(propan-2-yl)-1,2,5′,6′-tetrahydro-2′H-spiro [indole-3,4′-pyrrolo[3,4-c]pyrazole]-2,6′-dione] came in with a Ki in data set [1] of 1.9 nM. Further, the “times more potent than the corresponding S/R (racemic) mixture” value in data set [1] (enantiopure S isomers vs racemic Compounds 71, 93 and 72, respectively) is “about 2 times”. The compound further displayed an IC50 in data set [2] of 0.28 µM.
In the case of `COc1ccc(Cl)cc1N1C(=O)c2n[nH]c(C3(C)CC3)c2C12C(=O)Nc1cc(Cl)ccc12` (centres unmarked) [Compound 22, 6-chloro-5′-(5-chloro-2-methoxyphenyl)-3′-(1-methylcyclopropyl)-1,2,5′,6′-tetrahydro-2′H-spiro[indole-3,4′-pyrrolo [3,4-c]pyrazole]-2,6′-dione], in data set [1], affinity was put at a Ki of 120 nM. In data set [2], the concentration for half-maximal inhibition (IC50) worked out at 6.95 µM.
The corresponding values for `COc1ccc(NC(C)=O)cc1-n1cc2c(c1C(C)C)C1(C(=O)Nc3cc(Cl)ccc31)N(c1cc(Cl)ccc1C)C2=O` (centres unmarked) [Compound 97, N-{3-[6-chloro-2′-(5-chloro-2-methylphenyl)-2,3′-dioxo-6′-(propan-2-yl)-1,2,3′,5′-tetrahydro-2′H-spiro[indole-3,1′-pyrrolo[3,4-c]pyrrole]-5′-yl]-4-methoxyphenyl}acetamide] are 3.4 nM and 0.3 µM.
The corresponding values for `COC(=O)c1ccc(OC)c(-n2nc3c(c2C(C)C)C2(C(=O)Nc4cc(Cl)ccc42)N(c2cc(Cl)ccc2C)C3=O)c1` (centres unmarked) [Compound 78, methyl 3-[6-chloro-5′-(5-chloro-2-methylphenyl)-2,6′-dioxo-3′-(propan-2-yl)-1,2,5′,6′-tetrahydro-2′H-spiro[indole-3,4′-pyrrolo[3,4-c]pyrazol]-2′-yl]-4-methoxybenzoate] are 3.4 nM and 0.36 µM.
The corresponding values for `CCN(CC)S(=O)(=O)c1ccc(OC)c(-n2cc3c(c2C(C)C)C2(C(=O)Nc4cc(Cl)ccc42)N(c2cc(Cl)ccc2C)C3=O)c1` (centres unmarked) [Compound 98, 3-[6-chloro-2′-(5-chloro-2-methylphenyl)-2,3′-dioxo-6′-(propan-2-yl)-1,2,3′,5′-tetrahydro-2′H-spiro[indole-3,1′-pyrrolo [3,4-c]pyrrole]-5′-yl]-N,N-diethyl-4-methoxybenzene-1-sulfonamide] are 4.6 nM and 0.38 µM.
